The text below walks through data of ChEMBL document CHEMBL1201862, “PubChem BioAssay data set” (2004).

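96-well plates; 48 h exposure; 5 concentrations. Endpoints by linear interpolation between flanking doses. Not reached: highest tested concentration assigned. At the GI50, growth is halved.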 The source made the active and inactive calls. Cut-off read from the data, not from the text of the source: active = GI50 up to about 1.1 µM and inactive = higher.

Holding throughout (assay): DTP human tumour cell line panel, 48 h
Assay [1] concerns 786-0.
Assay [2] relates to A549.
Assay [3] concerns CAKI-1.
The subject of assay [4] is COLO 205.
Assay [5] has as its system Malme-3M.
The subject of assay [6] is NCI-H226.
The test system of assay [7] is NCI-H522.
Assay [8] concerns OVCAR-4.
For assay [9], the system named is SF-268.
For assay [10], the system named is SF-295.
The test system of assay [11] is SF-539.
Assay [12] deals with SK-MEL-2.
Assay [13] has as its system TK-10.
Assay [14] relates to UACC-62.
In assay [15] the test system is NCI-H460.
The subject of assay [16] is OVCAR-5.
For assay [17], the system named is SN12C.
Assay [18] relates to HCT-15.

Take `CC(=O)CN(Cc1cc(C)c2c(c1)c1ccccc1n2Cc1ccccc1)S(=O)(=O)c1ccc(C)cc1`: the GI50 in [1], in assay [2], in assay [3], in [4], in [5] and in [6] was > 100 µM (inactive) in each case. Also, the GI50 in [7], in assay [8], in [9], in [10], in assay [11] and in assay [12] was > 100 µM (inactive) in each case. Moreover, the GI50 in assay [13] and in assay [14] was > 100 µM (inactive) in each case.
Consider `COc1cc2cccc(NC(=O)c3cc(OC)c(OC)c(OC)c3Br)c2cc1OC`, for which the GI50 (usually the concentration that inhibits growth by half) in assay [1] was 29.2 µM (inactive); in [2], 14.1 µM (inactive); in [3], 17.6 µM (inactive); in [4], 12.9 µM (inactive); in assay [5] it was 18.5 µM (inactive); in [15], 12.5 µM (inactive). Moreover, the GI50 in assay [7] was 11.8 µM (inactive); in assay [8], 9.02 µM (inactive); in assay [16], 10 µM (inactive); in assay [9], 18.5 µM (inactive); in assay [10], 12.5 µM (inactive); in assay [11], 15.4 µM (inactive). Moreover, the GI50 is 19.8 µM (inactive) in assay [12], 16.6 µM (inactive) in [17], 29.2 µM (inactive) in assay [13] and 10.3 µM (inactive) in assay [14].
`C[N+](C)(C)CC(=O)N/N=C/c1oc(-c2c(O)ccc3ccccc23)c(-c2c(O)ccc3ccccc23)c1[N+](=O)[O-]`: the GI50 in assay [1] is 19.9 µM (inactive); in assay [2] it was 21.5 µM (inactive); in assay [3], 24.7 µM (inactive); in assay [4] it was 21.9 µM (inactive); in assay [5], 11.4 µM (inactive); in assay [6], 17.4 µM (inactive). The GI50 in assay [15] was 19.5 µM (inactive); in assay [7] it was 15.8 µM (inactive); in assay [8] it was 21.5 µM (inactive); in [16] it was 22.1 µM (inactive); in assay [9] it was 12.4 µM (inactive); in assay [10], 17.1 µM (inactive). In addition, the GI50 is 14.7 µM (inactive) in assay [11]; 16.2 µM (inactive) in assay [12]; 24.2 µM (inactive) in assay [17]; 26.3 µM (inactive) in assay [13]; 1.53 µM (inactive) in assay [14].
On to `COc1ccc(-c2cc(O)c3cc4c(cc3n2)OCO4)cc1OC`, for which the GI50 is > 100 µM (inactive) in assay [1]; > 100 µM (inactive) in assay [2]; > 100 µM (inactive) in assay [3]; > 100 µM (inactive) in assay [4]; > 100 µM in assay [18]; > 100 µM (inactive) in [5]. Also, the GI50 in assay [6], in assay [15], in [7], in [8], in assay [9] and in assay [10] was > 100 µM (inactive) in each case. In addition, the GI50 in [11], in [12], in assay [17], in assay [13] and in [14] was > 100 µM (inactive) in each case.
As for `Cn1nc(-c2ccccc2NC(=O)C(F)(F)F)c(=O)n(C)c1=S`, the GI50 in assay [1] was 61.9 µM (inactive); in [2], 50.5 µM (inactive); in [3] it was 33.6 µM (inactive); in [4] it was > 10 µM (inactive); in assay [5], 37.8 µM (inactive); in assay [6] it was 38.5 µM (inactive). The GI50 in [15] was 23.5 µM (inactive); in assay [7], 19.3 µM (inactive); in [8] it was 19.9 µM (inactive); in assay [16] it was 69.3 µM (inactive); in assay [9], 25.8 µM (inactive); in assay [10], 58.2 µM (inactive). Moreover, the GI50 in [11] was 29.4 µM (inactive); in [12] it was 26.7 µM (inactive); in assay [17], 42.3 µM (inactive); in assay [13], 32.3 µM (inactive); in [14], > 10 µM (inactive).
Consider `CC(=O)Nc1ccc(/C=C(\NC(=O)c2ccccc2)c2nc3ccc4c(c3[nH]2)C(=O)c2ccccc2C4=O)cc1`, for which the GI50 is 35.6 µM (inactive) in assay [1]; 12.5 µM (inactive) in assay [2]; 5.02 µM (inactive) in assay [3]; 57.8 µM (inactive) in assay [4]; 39.2 µM in [18]; > 100 µM (inactive) in assay [5]. Further, the GI50 in assay [6] is > 100 µM (inactive); in assay [7], 4.9 µM (inactive); in assay [8], 56.8 µM (inactive); in assay [16], > 100 µM (inactive); in assay [9], 5.94 µM (inactive); in [10], 22.6 µM (inactive). The GI50 in assay [11] was 17.5 µM (inactive); in assay [12] it was 48.8 µM (inactive); in assay [17], 25.4 µM (inactive); in assay [13], 17.5 µM (inactive); in assay [14], 17.9 µM (inactive).
As for `C=C1C(=O)C23[C@H](O)C1CC[C@H]2[C@]12COC3(O)[C@@H](O)[C@@H]1C(C)(C)CC[C@@H]2O`, the GI50 was 11 µM (inactive) in assay [1]; 23.3 µM (inactive) in [2]; 1.98 µM (inactive) in [3]; 0.452 µM (active) in assay [4]; 3.33 µM in assay [18]; 2.49 µM (inactive) in assay [5]. For the same compound, the GI50 in assay [15] was 16 µM (inactive); in [7], 0.552 µM (active); in assay [8] it was 18 µM (inactive); in assay [16], 18.5 µM (inactive); in [9] it was 4.76 µM (inactive); in [10] it was 17.6 µM (inactive). Besides, the GI50 is 6.98 µM (inactive) in [11]; 2.28 µM (inactive) in assay [12]; 20.1 µM (inactive) in [17]; 17.2 µM (inactive) in assay [13]; 10.9 µM (inactive) in assay [14].
Consider `CC(=O)NC(CCCCNC(=O)N(CCCl)N=O)C(=O)NCc1ccccc1` (centres undefined), for which the GI50 in assay [1] was 35.9 µM (inactive); in [2], > 100 µM (inactive); in assay [3], > 100 µM (inactive); in assay [4], > 100 µM (inactive); in assay [18] it was > 100 µM; in [5] it was > 100 µM (inactive). In addition, the GI50 in [6] is > 100 µM (inactive); in assay [15], 28.6 µM (inactive); in assay [7], > 100 µM (inactive); in [8], > 100 µM (inactive); in assay [9], 17.9 µM (inactive); in [10], 55.2 µM (inactive). For the same compound, the GI50 is 29 µM (inactive) in assay [11], > 100 µM (inactive) in [12], > 100 µM (inactive) in assay [17] and > 100 µM (inactive) in [14].
Take `COc1ccc(NC(=O)CSc2nnc(-c3ccc(NC(C)=O)cc3)o2)cc1`: the GI50 in assay [1] is 17.2 µM (inactive); in assay [2], 20.9 µM (inactive); in [4], 19.4 µM (inactive); in assay [18] it was 11.2 µM; in assay [5] it was 20.6 µM (inactive); in assay [6] it was 24.3 µM (inactive). Moreover, the GI50 was 15.5 µM (inactive) in [15]; 14.5 µM (inactive) in assay [7]; 15.7 µM (inactive) in assay [8]; 14.4 µM (inactive) in assay [16]; 15.8 µM (inactive) in assay [9]; 15.3 µM (inactive) in [10]. Besides, the GI50 in assay [11] is > 10 µM (inactive); in assay [12], 19.1 µM (inactive); in assay [17] it was 20 µM (inactive); in assay [13], 21.7 µM (inactive); in assay [14] it was 16.5 µM (inactive).
Take `CC(=O)OCCOCNC(=S)N/N=C(\C)c1cccs1`: the GI50 in [1] was > 100 µM (inactive); in assay [2] it was > 100 µM (inactive); in assay [4], > 100 µM (inactive); in [18], > 100 µM; in assay [5] it was > 100 µM (inactive); in assay [6] it was > 100 µM (inactive). In addition, the GI50 in [15], in assay [7], in assay [8], in assay [16], in [9] and in [10] was > 100 µM (inactive) in each case. For the same compound, the GI50 in [11], in [12], in assay [17], in assay [13] and in assay [14] was > 100 µM (inactive) throughout.
For the compound `O=[N+]([O-])c1ccc(-c2cnc3ccccn23)cc1`, the GI50 is > 100 µM (inactive) in assay [1]; > 100 µM (inactive) in assay [2]; 62.4 µM (inactive) in assay [3]; > 100 µM (inactive) in [4]; > 100 µM in assay [18]; > 100 µM (inactive) in [5]. Also, the GI50 in assay [6], in assay [15], in [7], in [8], in assay [16] and in [9] was > 100 µM (inactive) throughout. Besides, the GI50 in assay [10] is > 100 µM (inactive); in assay [11], > 100 µM (inactive); in [12] it was > 100 µM (inactive); in [17], 61.2 µM (inactive); in assay [14] it was > 100 µM (inactive).
`CCOC(=O)C1Cc2c(ccc(OC)c2OC)C(=O)C1N` (centres undefined): the GI50 in assay [1] was > 100 µM (inactive); in [2] it was > 100 µM (inactive); in assay [3], > 100 µM (inactive); in assay [4] it was > 100 µM (inactive); in assay [18], > 100 µM; in assay [5] it was > 100 µM (inactive). Also, the GI50 was > 100 µM (inactive) in [6]; > 100 µM (inactive) in assay [15]; > 100 µM (inactive) in assay [7]; 82.2 µM (inactive) in [8]; > 100 µM (inactive) in assay [16]; > 100 µM (inactive) in assay [10]. Also, the GI50 in [11], in [12], in [17], in assay [13] and in [14] was > 100 µM (inactive) each time.
